# Experimental data reported in a flash point compilation (Sun et al. 2020).
row,SMILES,flash point [°C]
1,C=CC(=O)OC [methylacrylate],-3
2,CCCCCC(=O)OC [methylhexanoate],41
3,CCCCCCCC(=O)OC [methyloctanoate],69
4,CCC(C)(C)OC [methyltert-pentylether],-7
5,C1COCCN1 [morpholine],31
6,CC(C)(C)Cc1ccccc1 [neopentylbenzene],50
7,O=[N+]([O-])C1CCCCC1 [nitrocyclohexane],81
8,O=[N+]([O-])C1CCCC1 [nitrocyclopentane],67
9,CC[N+](=O)[O-] [nitroethane],28
10,CCCCCCCCC#N [nonanenitrile],82
11,CCCCCCCCCOC(C)=O [nonylacetate],91
12,CCCCCCCCCN [nonylamine],74
13,CCCCCCCCCOC=O [nonylformate],88
14,CCc1ccccc1CC [o-diethylbenzene],55
15,CCCCCCCC#N [octanenitrile],74
16,CCc1ccc(C)cc1 [p-ethyltoluene],36
17,Cc1ccc(C)cc1 [p-xylene],25
18,CCCCC=O [pentanal],8
19,CCCCC#N [pentanenitrile],32
20,CCCCC(=O)OC(=O)CCCC [pentanoicanhydride],101
21,CCCCCOC(C)=O [pentylacetate],39
22,CCCCCOC(=O)c1ccccc1 [pentylbenzoate],120
23,CCCCCOC(=O)CC [pentylpropanoate],53
24,CC(=O)C(C)(C)C [pinacolone],5
25,CC(C)(C)C(=O)OC(=O)C(C)(C)C [pivalicanhydride],63

row,SMILES,flash point [°C]
1,CCC=O [propanal],-27
2,CCCOC(=O)C(C)C [propyl2-methylpropanoate],30
3,CCCOC(=O)CCC [propylbutanoate],35
4,C=C(C)C(=O)OCCC [propylmethacrylate],35
5,CCCOC(=O)CC [propylpropanoate],22
6,C=COCCC [propylvinylether],-22
7,c1ccncc1 [pyridine],17
8,CCC(C)N (stereo not given) [sec-butylamine],-19
9,CC(=O)OC(C)(C)C [tert-butylacetate],4
10,CC(C)(C)O [tert-butylalcohol],11
11,CC(C)(C)N [tert-butylamine],-38
12,CC(C)(C)c1ccccc1 [tert-butylbenzene],44
13,CC(C)(C)OC=O [tert-butylformate],-9
14,CSC(C)(C)C [tert-butylmethylsulfide],-3
15,C=COC(C)(C)C [tert-butylvinylether],-17
16,C1CCOC1 [tetrahydrofuran],-21
17,"C[C@H]1CC[C@H](C)CC1 [trans-1,4-dimethylcyclohexane]",6
18,C/C=C/CCCCC [trans-2-octene],14
19,C/C=C/CC [trans-2-pentene],-45
20,CC/C=C/CCC [trans-3-heptene],-7
21,C[C@H]1CC[C@H](O)CC1 [trans-4-methylcyclohexanol],70
22,CCC/C=C/CCC [trans-4-octene],8
23,C1CC[C@H]2CCCC[C@@H]2C1 [trans-decalin],53
24,CCOC(OCC)OCC [triethoxymethane],35
25,CCCN(CCC)CCC [tripropylamine],35
